Test results from patent publication US20130225830A1, “POLYMORPHS OF FEBUXOSTAT” (MAPI PHARMA LIMITED, priority 2010, published 2013).
In brackets after ≈: the same amount, converted by molar mass. Where two headings read alike, the source gives them in different places.

Tests used:
Format in all cases: physicochemical
[1] = Hygroscopicity measurements (DVS sorption/desorption profiles); conditions: 25° C.
Method: The sorption/desorption profiles of the forms of the present invention were tested at 25° C. under 0-90% relative humidity. The forms of the present invention were classified according to the following criteria: Deliquescent: Sufficient water is absorbed to form a liquid. […] Hygroscopic: Increase in mass is less than 15% and equal to or greater than 2%. Slightly hygroscopic: Increase in mass is less than 2% and equal to or greater than 0.2%. Non-hygroscopic: Increase in mass is less than 0.2%.

[2] = Aqueous solubility measurements; conditions: for solubility at 24 h: 25 °C, thermodynamic from solid, read-out: HPLC solubility; for pH: final pH of saturated solution
Method: Testing media: water, pH 1.2, 4.5, 6.8, 7.4 USP buffers, 0.01 N HCl, 0.1 N HCl, SGF, FaSSIF, FeSSIF.
The various testing media were prepared as follows:
pH 1.2 (USP): 50 mL of 0.2 M potassium chloride solution were placed in a 200 mL volumetric flask to which 85.0 mL of 0.2M hydrochloric acid solution were added followed by the addition of water to obtain the required volume.
pH 4.5 (USP): 50 mL of 0.2 M potassium biphthalate solution were placed in a 200 mL volumetric flask to which 8.8 mL of 0.2 M sodium hydroxide solution were added followed by the addition of water to obtain the required volume.
pH 6.8 (USP): 50 mL of 0.2 M monobasic potassium phosphate solution were placed in a 200 mL volumetric flask to which 22.4 mL of 0.2 M sodium hydroxide solution were added followed by the addition of water to obtain the required volume.
pH 7.4 (USP): 50 mL of 0.2 M monobasic potassium phosphate solution were placed in a 200 mL volumetric flask to which 39.1 mL of 0.2 M sodium hydroxide solution were added followed by the addition of water to obtain the required volume.
Simulated gastric fluid (SGF): 0.01 N HCl, 0.05% sodium lauryl sulfate, and 0.2% NaCl.
Fasted state simulated intestinal fluid (FaSSIF): 29 mM NaH2PO4, 3 mM Na taurocholate, 0.75 mM lecithin, 103 mM NaCl, and NaOH to obtain pH 6.5.
Fed state simulated intestinal fluid (FeSSIF): 144 mM acetic acid, 15 mM Na taurocholate, 3.75 mM lecithin, 204 mM NaCl, and NaOH to obtain pH 5.0.
Testing procedure: The tested febuxostat form was placed in each of the different media and was kept shaken for 24 hours at 25° C. Then, the saturated solution was filtered. The concentration of the febuxostat form in filtrate was determined by HPLC. The final pH was then tested. The test was conducted in duplication.

[3] = Bulk and tapped density measurements
Method: Bulk density testing: A febuxostat form in an amount which is sufficient to complete the test was passed through a 1.0 mm (No. 18) screen to break up agglomerates that may have formed during storage. The febuxostat form was then weighed (M) and the powder was added into a 10 mL graduated cylinder. The powder was carefully leveled without compacting, and the unsettled apparent volume, Vo, was read. The bulk density, in g per mL, was calculated by the formula: Bulk Density=M/Vo Tapped density testing: A febuxostat form in an amount which is sufficient to complete the test was passed through a 1.0 mm (No. 18) screen to break up agglomerates that may have formed during storage. The febuxostat form was then weighed and the powder was added into a 10 mL graduated cylinder. The powder was carefully leveled without compacting. The cylinder was tapped 500 times initially and the tapped volume, Va, was measured to the nearest graduated unit. The tapping was then repeated for additional 750 times and the tapped volume, Vb, was measured to the nearest graduated unit. If the difference between the two volumes was less than 2%, Vb was taken as the final tapped volume, Vf. The tapped density, in g per mL, was calculated by the formula: Tapped Density=M/Vf

[4] = media 0.01N HCl, 24 hours at 25° C.
[5] = media 0.1N HCl, 24 hours at 25° C.
[6] = media FaSSIF, 24 hours at 25° C.
[7] = media FeSSIF, 24 hours at 25° C.
[8] = media pH 1.2 (USP), 24 hours at 25° C.
[9] = media pH 4.5 (USP), 24 hours at 25° C.
[10] = media pH 6.8 (USP), 24 hours at 25° C.
[11] = media pH 7.4 (USP), 24 hours at 25° C.
[12] = media water, 24 hours at 25° C.

Cc1nc(-c2ccc(OCC(C)C)c(C#N)c2)sc1C(=O)O [Form G of U.S. Pat. No. 6,225,474, 2-(3-cyano-4-isobutoxyphenyl)-4-methyl-5-thiazolecarboxylic acid, reference compound]
Change in Mass (%) - ref, Desorption ([1]; Target % P/P0 0.0): −0.013% | Change in Mass (%) - ref, Sorption ([1]; Target % P/P0 0.0): 0.000% | Change in Mass (%) - ref, Desorption ([1]; Target % P/P0 10.0): 1.323% | Change in Mass (%) - ref, Hysteresis ([1]; Target % P/P0 10.0): 0.241% | Change in Mass (%) - ref, Sorption ([1]; Target % P/P0 10.0): 1.082% | Change in Mass (%) - ref, Desorption ([1]; Target % P/P0 20.0): 1.540% | Change in Mass (%) - ref, Hysteresis ([1]; Target % P/P0 20.0): 0.215% | Change in Mass (%) - ref, Sorption ([1]; Target % P/P0 20.0): 1.326% | Change in Mass (%) - ref, Desorption ([1]; Target % P/P0 30.0): 1.692% | Change in Mass (%) - ref, Hysteresis ([1]; Target % P/P0 30.0): 0.219% | Change in Mass (%) - ref, Sorption ([1]; Target % P/P0 30.0): 1.473% | Change in Mass (%) - ref, Desorption ([1]; Target % P/P0 40.0): 1.806% | Change in Mass (%) - ref, Hysteresis ([1]; Target % P/P0 40.0): 0.181% | Change in Mass (%) - ref, Sorption ([1]; Target % P/P0 40.0): 1.625% | Change in Mass (%) - ref, Desorption ([1]; Target % P/P0 50.0): 1.923% | Change in Mass (%) - ref, Hysteresis ([1]; Target % P/P0 50.0): 0.173% | Change in Mass (%) - ref, Sorption ([1]; Target % P/P0 50.0): 1.750% | Change in Mass (%) - ref, Desorption ([1]; Target % P/P0 60.0): 2.074% | Change in Mass (%) - ref, Hysteresis ([1]; Target % P/P0 60.0): 0.158% | Change in Mass (%) - ref, Sorption ([1]; Target % P/P0 60.0): 1.915% | Change in Mass (%) - ref, Desorption ([1]; Target % P/P0 70.0): 2.229% | Change in Mass (%) - ref, Hysteresis ([1]; Target % P/P0 70.0): 0.119% | Change in Mass (%) - ref, Sorption ([1]; Target % P/P0 70.0): 2.109% | Change in Mass (%) - ref, Desorption ([1]; Target % P/P0 80.0): 2.420% | Change in Mass (%) - ref, Hysteresis ([1]; Target % P/P0 80.0): 0.078% | Change in Mass (%) - ref, Sorption ([1]; Target % P/P0 80.0): 2.342% | Change in Mass (%) - ref, Desorption ([1]; Target % P/P0 90.0): 2.776% | Change in Mass (%) - ref, Sorption ([1]; Target % P/P0 90.0): 2.776% | solubility at 24 h ([2]; FaSSIF, pH 6.5, fassif, media FaSSIF, 24 hours at 25° C.): 448 µg/mL (≈ 1420 µM) | solubility at 24 h ([2]; FeSSIF, pH 5, fessif, media FeSSIF, 24 hours at 25° C.): 132 µg/mL (≈ 418 µM) | pH [2, 4]: 1.987 | pH [2, 5]: 0.945 | pH [2, 6]: 6.384 | pH [2, 7]: 4.965 | pH ([2]; media SGF, 24 hours at 25° C.): 2.118 | pH [2, 8]: 1.089 | pH [2, 9]: 4.469 | pH [2, 10]: 6.686 | pH [2, 11]: 6.985 | pH ([2]; media water, shaken 24 hours at 25° C.): 8.416 | Visual solubility [2, 4]: few particles | Visual solubility [2, 5]: few particles | Visual solubility [2, 6]: Turbid + few particles | Visual solubility [2, 7]: Turbid + few particles | Visual solubility ([2]; media SGF, 24 hours at 25° C.): few particles | Visual solubility [2, 8]: few particles | HPLC solubility [2, 9]: 0.11 µg/mL | Visual solubility [2, 9]: few particles | HPLC solubility [2, 10]: 764.90 µg/mL | Visual solubility [2, 10]: Turbid + few particles | Visual solubility [2, 11]: Slightly Turbid + few | HPLC solubility [2, 12]: 29.80 µg/mL | Visual solubility [2, 12]: Turbid + few particles | solubility at 24 h ([2]; pH 7.4 USP buffer, pH 7.4, aqueous buffer, media pH 7.4 (USP), 24 hours at 25° C.): 3330 µg/mL (≈ 10500 µM) | Bulk Density [3]: 0.376 g/mL | Tapped Density [3]: 0.511 g/mL
